In the case of `CC(N)(CO)COC(C)(C)C` (stereo not shown) [Compound 301, 2-amino-3-tert-butoxy-2-methyl-propan-1-ol], the melting point was in the range of 30 to 35 °C.

Broadly, the melting point is the temperature of the solid-liquid transition.

For the origin of these results see US7002010B2, “Process for the preparation of morpholinones as light stabilizers” (Ciba Specialty Chemicals Corporation, priority 2000, dated 2006).
